Measurements: publication PMC11178787, “Development of a natural product optimization strategy for inhibitors against MraY, a promising antibacterial target” (Nature Communications, 2024)
≈ marks a conversion by molar mass, not a printed value. Read-outs that look alike come from different tables or passages of the source.

How the values were obtained:
MraYSA (S. aureus MraY) = MraYSA (S. aureus MraY) (Staphylococcus aureus, UniProt Q2FZ93); experiment: fluorescence assay of dansylated lipid I formation; assay type: biochemical
S. aureus ATCC 29213 = system: T1, S. aureus ATCC 29213; experiment: microbe, parasite or virus in culture; set-up: CLSI broth microdilution MIC in MHB-II, single trial; settings: Staphylococcus aureus, ATCC29213, 18 h
T1 construct: ATCC 29213
Description: (§1) MICs were determined by a microdilution broth method as recommended by the CLSI with MHB-II. For MICs of stable analogues, a 2-fold dilution of each compound was prepared in DMSO at 100-fold of the final concentration. The strains were inoculated with 5 × 10^5 cfu/mL in 96-well plates (each 100 μL/well), and 1 μL of DMSO solutions of the samples were added (contained less than 1% DMSO). The plates were incubated at 37 °C for 18 h and then MICs were determined. MICs of stable analogues in Table 1 were the highest value in three trials. MICs in Supplementary Table 1 were determined in one trial.

[1] = system: T2, E. faecalis(VRE) ATCC 51299; experiment: microbe, parasite or virus in culture; set-up: CLSI broth microdilution MIC in MHB-II, single trial; settings: Enterococcus faecalis, 18 h
T2 construct: ATCC 51299 (VRE)
Description: as §1

[2] = system: T3, E. faecium(VRE) ATCC 51858; experiment: microbe, parasite or virus in culture; set-up: CLSI broth microdilution MIC in MHB-II, single trial; settings: Enterococcus faecium, 18 h
T3 construct: ATCC 51858 (VRE)
Description: as §1

[3] = system: T4, E. faecium(VRE) ATCC 51559; experiment: microbe, parasite or virus in culture; set-up: CLSI broth microdilution MIC in MHB-II, single trial; settings: Enterococcus faecium, 18 h
T4 construct: ATCC 51559 (VRE)
Description: as §1

E. faecium ATCC 35667 = system: T5, E. faecium ATCC 35667; experiment: microbe, parasite or virus in culture; set-up: CLSI broth microdilution MIC in MHB-II, single trial; settings: Enterococcus faecium, ATCC35667, 18 h
T5 construct: ATCC 35667
Description: as §1

[4] = system: T6, Staphylococcus aureus MRSA JE2; experiment: microbe, parasite or virus in culture; set-up: CLSI broth microdilution MIC in MHB-II, single trial; settings: 18 h
T6 construct: JE2 (MRSA)
Description: as §1

[5] = system: T7, Staphylococcus aureus #2934; experiment: microbe, parasite or virus in culture; set-up: CLSI broth microdilution MIC in MHB-II; settings: Staphylococcus aureus, 18 h, read-out: MIC
T7 construct: #2934
Description: as §1

[6] = system: T8, Staphylococcus aureus #2935; experiment: microbe, parasite or virus in culture; set-up: CLSI broth microdilution MIC in MHB-II; settings: Staphylococcus aureus, 18 h, read-out: MIC
T8 construct: #2935
Description: as §1

Enterococcus faecalis 27 = system: T9, Enterococcus faecalis 27; experiment: microbe, parasite or virus in culture; set-up: CLSI broth microdilution MIC in MHB-II; settings: Enterococcus faecalis, 27, 18 h, read-out: MIC
T9 construct: 27
Description: as §1

Enterococcus faecalis 21 = system: T10, Enterococcus faecalis 21; experiment: microbe, parasite or virus in culture; set-up: CLSI broth microdilution MIC in MHB-II; settings: Enterococcus faecalis, 21, 18 h, read-out: MIC
T10 construct: 21
Description: as §1

Enterococcus faecium 7 = experiment: microbe, parasite or virus in culture; set-up: CLSI broth microdilution MIC in MHB-II; settings: Enterococcus faecium, 7, 18 h, read-out: MIC
Description: as §1

Enterococcus faecalis 25 = system: T11, Enterococcus faecalis 25; experiment: microbe, parasite or virus in culture; set-up: CLSI broth microdilution MIC in MHB-II; settings: Enterococcus faecalis, 25, 18 h, read-out: MIC
T11 construct: 25
Description: as §1

Enterococcus faecalis 29 = system: T12, Enterococcus faecalis 29; experiment: microbe, parasite or virus in culture; set-up: CLSI broth microdilution MIC in MHB-II; settings: Enterococcus faecalis, 29, 18 h, read-out: MIC
T12 construct: 29
Description: as §1

Enterococcus faecalis 30 = system: T13, Enterococcus faecalis 30; experiment: microbe, parasite or virus in culture; set-up: CLSI broth microdilution MIC in MHB-II; settings: Enterococcus faecalis, 30, 18 h, read-out: MIC
T13 construct: 30
Description: as §1

Enterococcus faecium 9 = experiment: microbe, parasite or virus in culture; set-up: CLSI broth microdilution MIC in MHB-II; settings: Enterococcus faecium, 9, 18 h, read-out: MIC
Description: as §1

Enterococcus faecium 8 = experiment: microbe, parasite or virus in culture; set-up: CLSI broth microdilution MIC in MHB-II; settings: Enterococcus faecium, 8, 18 h, read-out: MIC
Description: as §1

[7] = system: T14, Staphylococcus aureus #2110; experiment: microbe, parasite or virus in culture; set-up: CLSI broth microdilution MIC in MHB-II; settings: Staphylococcus aureus, 18 h, read-out: MIC
T14 construct: #2110
Description: as §1

Enterococcus faecalis 28 = system: T15, Enterococcus faecalis 28; experiment: microbe, parasite or virus in culture; set-up: CLSI broth microdilution MIC in MHB-II; settings: Enterococcus faecalis, 28, 18 h, read-out: MIC
T15 construct: 28
Description: as §1

[8] = system: T16, Staphylococcus aureus #2334; experiment: microbe, parasite or virus in culture; set-up: CLSI broth microdilution MIC in MHB-II; settings: Staphylococcus aureus, 18 h, read-out: MIC
T16 construct: #2334
Description: as §1

Enterococcus faecium 10 = system: T17, Enterococcus faecium 10; experiment: microbe, parasite or virus in culture; set-up: CLSI broth microdilution MIC in MHB-II; settings: Enterococcus faecium, 10, 18 h, read-out: MIC
T17 construct: 10
Description: as §1

Enterococcus faecalis 26 = system: T18, Enterococcus faecalis 26; experiment: microbe, parasite or virus in culture; set-up: CLSI broth microdilution MIC in MHB-II; settings: Enterococcus faecalis, 26, 18 h, read-out: MIC
T18 construct: 26
Description: as §1

Enterococcus faecium 1 = experiment: microbe, parasite or virus in culture; set-up: CLSI broth microdilution MIC in MHB-II; settings: Enterococcus faecium, 1, 18 h, read-out: MIC
Description: as §1

[9] = system: T19, Staphylococcus aureus #2933; experiment: microbe, parasite or virus in culture; set-up: CLSI broth microdilution MIC in MHB-II; settings: Staphylococcus aureus, 18 h, read-out: MIC
T19 construct: #2933
Description: as §1

[10] = system: T20, Staphylococcus aureus #2932; experiment: microbe, parasite or virus in culture; set-up: CLSI broth microdilution MIC in MHB-II; settings: Staphylococcus aureus, 18 h, read-out: MIC
T20 construct: #2932
Description: as §1

Sequence of MraYSA (S. aureus MraY) (Q2FZ93 whole entry): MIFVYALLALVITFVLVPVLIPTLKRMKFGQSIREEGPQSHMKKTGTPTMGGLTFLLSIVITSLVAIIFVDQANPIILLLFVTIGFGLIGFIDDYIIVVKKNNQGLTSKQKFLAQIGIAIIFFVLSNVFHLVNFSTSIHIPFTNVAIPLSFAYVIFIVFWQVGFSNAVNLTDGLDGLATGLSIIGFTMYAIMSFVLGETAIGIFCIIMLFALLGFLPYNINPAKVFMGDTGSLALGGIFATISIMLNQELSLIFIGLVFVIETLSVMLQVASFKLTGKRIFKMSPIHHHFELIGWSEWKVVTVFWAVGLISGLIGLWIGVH

Compound: CCCCCCCCCCCCCCCC(=O)N[C@@H](CCCCN)C(=O)Nc1cccc(CN[C@H](C(=O)O)[C@H](O[C@@H]2O[C@H](CN)[C@@H](O)[C@H]2O)[C@H]2O[C@@H](n3ccc(=O)[nH]c3=O)[C@H](O)[C@@H]2O)c1 [compound 6, analogue 6]
- IC50 (MraYSA (S. aureus MraY)): 3.7 nM
- MIC (S. aureus ATCC 29213; read-out: 6 MIC): 1 µg/mL (≈ 1.09 µM)
- MIC ([1]; read-out: 6 MIC): 0.5 µg/mL (≈ 0.543 µM)
- MIC ([2]; read-out: 6 MIC): 2 µg/mL (≈ 2.17 µM)
- MIC ([3]; read-out: 6 MIC): 1 µg/mL (≈ 1.09 µM)
- MIC (E. faecium ATCC 35667; read-out: 6 MIC): 0.5 µg/mL (≈ 0.543 µM)
- MIC ([4]; read-out: 6 MIC): 1 µg/mL (≈ 1.09 µM)
- MIC [5]: 0.5 µg/mL (≈ 0.543 µM)
- MIC [6]: 1 µg/mL (≈ 1.09 µM)
- MIC (Enterococcus faecalis 27): 0.5 µg/mL (≈ 0.543 µM)
- MIC (Enterococcus faecalis 21): 0.25 µg/mL (≈ 0.272 µM)
- MIC (Enterococcus faecium 7): 2 µg/mL (≈ 2.17 µM)
- MIC (Enterococcus faecalis 25): 0.5 µg/mL (≈ 0.543 µM)
- MIC (Enterococcus faecalis 29): 0.25 µg/mL (≈ 0.272 µM)
- MIC (Enterococcus faecalis 30): 0.5 µg/mL (≈ 0.543 µM)
- MIC (Enterococcus faecium 9): 1 µg/mL (≈ 1.09 µM)
- MIC (Enterococcus faecium 8): 0.5 µg/mL (≈ 0.543 µM)
- MIC [7]: 2 µg/mL (≈ 2.17 µM)
- MIC (Enterococcus faecalis 28): 0.13 µg/mL (≈ 0.141 µM)
- MIC [8]: 1 µg/mL (≈ 1.09 µM)
- MIC (Enterococcus faecium 10): 1 µg/mL (≈ 1.09 µM)
- MIC (Enterococcus faecalis 26): 0.25 µg/mL (≈ 0.272 µM)
- MIC (Enterococcus faecium 1): 1 µg/mL (≈ 1.09 µM)
- MIC [9]: 0.5 µg/mL (≈ 0.543 µM)

Compound: CCCCCCCCCCCCCCCC(=O)N[C@@H](CCCNC(=N)N)C(=O)Nc1ccc(CN[C@H](C(=O)O)[C@H](O[C@@H]2O[C@H](CN)[C@@H](O)[C@H]2O)[C@H]2O[C@@H](n3ccc(=O)[nH]c3=O)[C@H](O)[C@@H]2O)cc1 [compound 7, analogue 7]
- IC50 (MraYSA (S. aureus MraY)): 1.7 nM
- MIC (S. aureus ATCC 29213; read-out: 7 MIC): 1 µg/mL (≈ 1.05 µM)
- MIC ([1]; read-out: 7 MIC): 0.5 µg/mL (≈ 0.527 µM)
- MIC ([2]; read-out: 7 MIC): 2 µg/mL (≈ 2.11 µM)
- MIC ([3]; read-out: 7 MIC): 0.5 µg/mL (≈ 0.527 µM)
- MIC (E. faecium ATCC 35667; read-out: 7 MIC): 0.5 µg/mL (≈ 0.527 µM)
- MIC ([4]; read-out: 7 MIC): 1 µg/mL (≈ 1.05 µM)
- MIC [5]: 1 µg/mL (≈ 1.05 µM)
- MIC (Enterococcus faecalis 27): 0.25 µg/mL (≈ 0.264 µM)
- MIC (Enterococcus faecalis 21): 0.5 µg/mL (≈ 0.527 µM)
- MIC (Enterococcus faecium 7): 0.5 µg/mL (≈ 0.527 µM)
- MIC (Enterococcus faecalis 25): 0.25 µg/mL (≈ 0.264 µM)
- MIC (Enterococcus faecalis 29): < 0.06 µg/mL
- MIC (Enterococcus faecalis 30): 0.25 µg/mL (≈ 0.264 µM)
- MIC (Enterococcus faecium 9): 0.25 µg/mL (≈ 0.264 µM)
- MIC (Enterococcus faecium 8): 0.5 µg/mL (≈ 0.527 µM)
- MIC [7]: 2 µg/mL (≈ 2.11 µM)
- MIC (Enterococcus faecalis 28): < 0.06 µg/mL
- MIC [8]: 2 µg/mL (≈ 2.11 µM)
- MIC (Enterococcus faecium 10): 1 µg/mL (≈ 1.05 µM)
- MIC (Enterococcus faecalis 26): 0.13 µg/mL (≈ 0.137 µM)
- MIC (Enterococcus faecium 1): 1 µg/mL (≈ 1.05 µM)
- MIC [9]: 1 µg/mL (≈ 1.05 µM)

Compound: C[C@H]1COc2c(N3CCN(C)CC3)c(F)cc3c(=O)c(C(=O)O)cn1c23 [levofloxacin]
- MIC (S. aureus ATCC 29213; read-out: levofloxacin MIC): 0.13 µg/mL (≈ 0.36 µM)
- MIC ([1]; read-out: levofloxacin MIC): 1 µg/mL (≈ 2.77 µM)
- MIC ([2]; read-out: levofloxacin MIC): 4 µg/mL (≈ 11.1 µM)
- MIC ([3]; read-out: levofloxacin MIC): 16 µg/mL (≈ 44.3 µM)
- MIC (E. faecium ATCC 35667; read-out: levofloxacin MIC): 4 µg/mL (≈ 11.1 µM)
- MIC ([4]; read-out: levofloxacin MIC): 8 µg/mL (≈ 22.1 µM)
- MIC [10]: > 32 µg/mL
- MIC [5]: > 32 µg/mL
- MIC [6]: > 32 µg/mL
- MIC (Enterococcus faecalis 27): 1 µg/mL (≈ 2.77 µM)
- MIC (Enterococcus faecalis 21): 0.5 µg/mL (≈ 1.38 µM)
- MIC (Enterococcus faecium 7): 0.5 µg/mL (≈ 1.38 µM)
- MIC (Enterococcus faecalis 25): 0.5 µg/mL (≈ 1.38 µM)
- MIC (Enterococcus faecalis 29): 0.5 µg/mL (≈ 1.38 µM)
- MIC (Enterococcus faecalis 30): 1 µg/mL (≈ 2.77 µM)
- MIC (Enterococcus faecium 9): > 32 µg/mL
- MIC (Enterococcus faecium 8): > 32 µg/mL
- MIC [7]: > 32 µg/mL
- MIC (Enterococcus faecalis 28): 1 µg/mL (≈ 2.77 µM)
- MIC [8]: > 32 µg/mL
- MIC (Enterococcus faecium 10): > 32 µg/mL
- MIC (Enterococcus faecalis 26): 0.5 µg/mL (≈ 1.38 µM)
- MIC (Enterococcus faecium 1): > 32 µg/mL
- MIC [9]: > 32 µg/mL
